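Cultured in 96-well plates, cells were exposed to test compound for 48 hours across five concentrations. TGI: total growth inhibition.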
What was measured:
Test in all cases: NCI-60 cell line screen, 48 h
A549 NSCLC = test system: A549 NSCLC
BT-549 breast = test system: BT-549 breast
KM12 colon = test system: KM12 colon
MDA-MB-231 breast = test system: MDA-MB-231 breast
NCI-H522 lung = test system: NCI-H522 lung
NCI/ADR-RES ovarian = test system: NCI/ADR-RES ovarian
OVCAR-8 ovarian = test system: OVCAR-8 ovarian
PC-3 prostate = test system: PC-3 prostate
RPMI-8226 leukemia = test system: RPMI-8226 leukemia
SN12C renal = test system: SN12C renal
TK-10 renal = test system: TK-10 renal
U251 CNS = test system: U251 CNS
UACC-62 melanoma = test system: UACC-62 melanoma

Structure (SMILES) | TGI (A549 NSCLC) [µM] | TGI (BT-549 breast) [µM] | TGI (KM12 colon) [µM] | TGI (MDA-MB-231 breast) [µM] | TGI (NCI-H522 lung) [µM] | TGI (NCI/ADR-RES ovarian) [µM] | TGI (OVCAR-8 ovarian) [µM] | TGI (PC-3 prostate) [µM] | TGI (RPMI-8226 leukemia) [µM] | TGI (SN12C renal) [µM] | TGI (TK-10 renal) [µM] | TGI (U251 CNS) [µM] | TGI (UACC-62 melanoma) [µM]
CCOC(=O)c1[nH]c2nc(SC)nc(NC)c2c1N | > 100 | > 100 | > 100 | > 100 | > 100 | > 100 | > 100 | > 100 | > 100 | > 100 | > 100 | > 100 | > 100
CC1(C)OC(CCO)CN1C(=O)OCc1ccccc1 (stereo not drawn) | > 100 | > 100 | > 100 | > 100 | > 100 | > 100 | > 100 | > 100 | > 100 | > 100 | > 100 | > 100 | > 100
Cc1ccc2c(c1)C(=O)/C(=C\c1ccc(Cl)cc1)CCS2(=O)=O | > 58.8 | 12.7 | 7.71 | 9.41 | 3.28 | 5.52 | 5.39 | 39.1 | 4.81 | 8.37 | 5.11 | 9.09 | 10.2
OCC1OC(O[C@H]2CN3[C@H](O)[C@@H](O)[C@H](O)[C@H]3C2O)C(O)C(O)C1O (stereo partly drawn) | > 100 | > 100 | > 100 | > 100 | > 100 | > 100 | > 100 | > 100 | > 100 | > 100 | > 100 | > 100 | > 100
COc1cc(/C=C/C(=O)O)ccc1OS(=O)(=O)O | > 100 | > 100 | > 100 | > 100 | > 100 | > 100 | > 100 | > 100 | > 100 | > 100 | > 100 | > 100 | > 100
CC[P+](C#Cc1ccccc1)(c1ccccc1)c1ccccc1 | 14.8 | 3.43 | 3.29 | 9.41 | 3.32 | > 100 | 6.2 | 6.53 | 0.781 | 5.41 | 7.09 | 4.48 | 3.45
